Consider 15 molecules from PubChem BioAssay (NCI).

Holding throughout (experiment): NCI-60 cell line screen, 48 h
Experiment [1] deals with SF-539 CNS.
Experiment [2] deals with SF-268 CNS.
Experiment [3] deals with HCT-15 colon.
Experiment [4] deals with SK-MEL-5 melanoma.
For experiment [5], the system named is TK-10 renal.
Experiment [6] deals with EKVX NSCLC.
In experiment [7] the test system is HS 578T breast.
The subject of experiment [8] is MDA-MB-231 breast.
For experiment [9], the system named is RPMI-8226 leukemia.
Experiment [10] deals with BT-549 breast.

Molecules are shown by their SMILES. “And” between values parts separate entries of the source, which are not always exact repeats. Identical values can stand only once.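 Following 48 hours of exposure in 96-well plates, responses at five concentrations were used to interpolate endpoints linearly. Abbreviation: GI50, concentration required for 50% inhibition of growth. TGI denotes the concentration required for complete inhibition of growth.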

In the case of `CC(=O)OCc1cc(OC(C)=O)cnc1COC(C)=O`, the TGI in experiment [1], in [2], in experiment [3], in experiment [4], in experiment [5] and in [6] was greater than 100 µM throughout.

Regarding `CN(C)CCCN(c1nc(C(Cl)(Cl)Cl)ns1)c1nc(C(Cl)(Cl)Cl)ns1`, the GI50 is 1.72 µM in experiment [7]; 1.91 µM in experiment [1]; 3.12 µM in experiment [2]; 1.88 µM in [3]; 1.6 µM in [4]; 1.93 µM in [5]. In addition, the GI50 in experiment [6] is 3.32 µM; in experiment [8], 1.19 µM; in experiment [9], 2.19 µM. In addition, the TGI in experiment [7] worked out at 4.46 µM; in [1], 3.8 µM; in [2] it was 11.4 µM; in experiment [3], 4.08 µM; in [4] it was 2.95 µM; in experiment [5], 3.58 µM. Further, the TGI was determined as 13 µM in experiment [6], 2.6 µM in experiment [8] and 5.35 µM in experiment [9].

For `N/C(=N\N=C\c1cccs1)NO`, the TGI in experiment [1], in experiment [2], in experiment [3], in [5] and in experiment [6] was greater than 100 µM throughout.

As for `COc1cc2ccc3c4c(OC)cc(OC)c(OC)c4c(=O)n(C)c3c2cc1OC`, the GI50 is 2.74 µM in experiment [1]; 1.13 µM in experiment [2]; 1.87 µM in experiment [3]; 4.11 µM in experiment [4]; greater than 16.7 µM in experiment [5]; 5.65 µM in experiment [6]. Further, in [9], the GI50 is 0.245 µM. Moreover, the TGI in [1] was 10.5 µM and > 47.4 µM; in experiment [2], 10.7 µM and > 21.2 µM; in [4], 16.7 µM and 35.1 µM; in [5], greater than 54.6 µM; in experiment [6], 16.7 µM and > 48.7 µM; in [9] it was 2.15 µM and 1.65 µM.

Take `Cc1cc(O)c(C(c2cccnc2)c2c(O)cc(C)[nH]c2=O)c(=O)[nH]1`: the TGI in [7], in experiment [2], in [10], in [3], in experiment [4] and in [5] was greater than 100 µM throughout. Moreover, the TGI in experiment [6], in experiment [8] and in experiment [9] was greater than 100 µM in each case.

Consider `COc1cc(/C=C2\[C@H]3c4c(c(OC)c(C)c(OC)c4OC)C[C@@H](C(=O)N2Cc2ccccc2)N3C(=O)OC(C)C)c(OC)c(C)c1OC`, for which the TGI in experiment [1], in [2], in experiment [4], in experiment [5], in experiment [6] and in experiment [9] was greater than 100 µM each time.

With `Cc1ccc(S(=O)(=O)/N=c2\ssc(Nc3ccccc3)c2Cl)cc1`, the GI50 in experiment [2] was 6.83 µM; in experiment [10] it was 5.27 µM; in experiment [3], 11.9 µM; in [4], 6.2 µM; in [5], 8.21 µM; in experiment [6], 6.03 µM. The GI50 in [8] was 9.84 µM; in experiment [9], 7.77 µM. The TGI in experiment [2] came to 21.8 µM; in experiment [10] it was 17 µM; in [3], 34.4 µM; in [4], 12.4 µM; in experiment [5], 22.8 µM; in experiment [6], 16.9 µM. Moreover, the TGI turned out to be 26 µM in [8] and 26.8 µM in [9].

As for `Cc1c(C(=O)CC(=O)C(=O)Nc2ccc(Cl)c(Cl)c2)[n+](=O)c2ccccc2n1[O-]`, the TGI in experiment [1] is 57.5 µM; in experiment [2] it was 85.2 µM; in [3], 48.2 µM; in experiment [4], 43.9 µM; in experiment [5], greater than 100 µM; in [6], 36.9 µM. The molecule also yielded a TGI in experiment [9] of 45.7 µM.

For the molecule `C#CCOCn1cnc2c(=S)nc[nH]c21`, the TGI in experiment [2], in experiment [3], in experiment [4], in experiment [5], in experiment [6] and in experiment [9] was greater than 100 µM in each case.

On to `CC(=O)NC(CCCCNC(=O)N(CCCl)N=O)C(=O)NCc1ccccc1` (stereo not given), for which the TGI in [1], in [2], in experiment [3], in experiment [6] and in [9] was greater than 100 µM in each case.

Take `CCC1=C(C)/C(=C/c2[nH]c(CBr)c(CC)c2C)N=C1CBr`: the TGI amounted to 38.2 µM in [1]; 36.8 µM in [2]; 27.2 µM in [3]; 30.5 µM in [4]; 37.6 µM in experiment [5]; 49.1 µM in experiment [6]. The molecule further had a TGI in experiment [9] of 36.7 µM.

Regarding `COc1ccc(C(c2ccc(C(C)C)cc(=O)c2O)c2ccc3cccnc3c2O)cc1` (stereo not given), the TGI in [1] was 2.29 µM; in experiment [2], 10.4 µM; in [3], 14.5 µM; in [4], 2.41 µM; in experiment [6], 7.86 µM; in experiment [9], 23.6 µM.

As for `COc1cc(-c2cc(=O)c3ccccc3o2)ccc1N`, the TGI in experiment [1], in experiment [2], in experiment [3], in experiment [4], in experiment [5] and in experiment [6] was greater than 100 µM throughout. The molecule further returned a TGI in experiment [9] greater than 100 µM.

For the molecule `O=c1c2ccccc2nc(-c2ccc(Br)cc2)n1NC1OC(CO)C(O)C(O)C1O` (stereo not given), the TGI in experiment [1], in experiment [2], in [3], in [4], in [5] and in [6] was greater than 100 µM in each case. The TGI in experiment [9] was greater than 100 µM.

`O=C(/C=C\c1cccc2ccccc12)c1cccs1`: the TGI in [1] turned out to be 34.9 µM; in [2], 26.1 µM; in [3], 13.8 µM; in experiment [4] it was 26.1 µM; in experiment [5], 33.2 µM; in [6], 25.9 µM. This molecule also showed a TGI in [9] of 7.68 µM.
